Data published in ChEMBL document CHEMBL5465560, “Selectivity Literature for EUbOPEN Chemogenomic Library” (2024).

Assays:
[1] = target: TGF-beta receptor type-2 (Homo sapiens) (UniProt P37173); assay: Selectivity interaction (KinomeScan (DiscoverX)) EUB0001079a TGFBR2; details: at 1 µM
[2] = target: T1, Ephrin type-A receptor 1 (Homo sapiens) (UniProt P21709); assay: Selectivity interaction (Kinase panel (Z-LYTE Assay)) EUB0001632a EPHA1; details: at 10 µM
T1 sequence (whole entry): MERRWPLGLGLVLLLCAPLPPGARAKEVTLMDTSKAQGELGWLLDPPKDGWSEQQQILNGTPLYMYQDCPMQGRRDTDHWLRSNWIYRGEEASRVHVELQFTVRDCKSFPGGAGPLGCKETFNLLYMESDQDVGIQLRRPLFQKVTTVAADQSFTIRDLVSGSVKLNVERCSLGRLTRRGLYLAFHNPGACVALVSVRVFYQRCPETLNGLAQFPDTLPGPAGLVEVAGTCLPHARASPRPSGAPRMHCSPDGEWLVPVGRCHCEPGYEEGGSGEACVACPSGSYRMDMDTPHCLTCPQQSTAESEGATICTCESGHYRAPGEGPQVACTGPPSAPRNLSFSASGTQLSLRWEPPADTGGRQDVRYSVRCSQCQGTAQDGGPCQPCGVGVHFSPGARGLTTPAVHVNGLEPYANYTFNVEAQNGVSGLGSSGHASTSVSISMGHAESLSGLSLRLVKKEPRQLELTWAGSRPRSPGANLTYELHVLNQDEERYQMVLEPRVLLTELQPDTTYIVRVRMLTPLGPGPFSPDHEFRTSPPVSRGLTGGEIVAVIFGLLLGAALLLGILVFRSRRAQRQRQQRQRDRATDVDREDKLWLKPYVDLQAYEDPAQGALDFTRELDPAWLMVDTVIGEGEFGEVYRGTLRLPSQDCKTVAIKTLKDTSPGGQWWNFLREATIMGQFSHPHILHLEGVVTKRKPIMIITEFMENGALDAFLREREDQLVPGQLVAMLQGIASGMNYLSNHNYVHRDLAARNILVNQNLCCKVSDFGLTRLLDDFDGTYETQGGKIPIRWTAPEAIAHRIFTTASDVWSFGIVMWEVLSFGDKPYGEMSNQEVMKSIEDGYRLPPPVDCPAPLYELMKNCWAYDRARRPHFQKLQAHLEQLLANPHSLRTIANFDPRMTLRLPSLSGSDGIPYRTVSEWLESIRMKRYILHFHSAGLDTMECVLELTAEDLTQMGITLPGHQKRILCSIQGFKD

[3] = target: Dual specificity mitogen-activated protein kinase kinase 2 (Homo sapiens) (UniProt P36507); assay: Selectivity interaction (Kinase panel (Z-LYTE Assay)) EUB0001632a MAP2K2; details: at 10 µM
[4] = target: Macrophage-stimulating protein receptor (Homo sapiens, UniProt Q04912); assay: Selectivity interaction (KinomeScan (DiscoverX)) EUB0000666a MST1R; details: at 10 µM
[5] = target: T2, SNF-related serine/threonine-protein kinase (Homo sapiens) (UniProt Q9NRH2); assay: Selectivity interaction (KinomeScan (DiscoverX)) EUB0000666a SNRK; details: at 10 µM
T2 sequence (whole entry): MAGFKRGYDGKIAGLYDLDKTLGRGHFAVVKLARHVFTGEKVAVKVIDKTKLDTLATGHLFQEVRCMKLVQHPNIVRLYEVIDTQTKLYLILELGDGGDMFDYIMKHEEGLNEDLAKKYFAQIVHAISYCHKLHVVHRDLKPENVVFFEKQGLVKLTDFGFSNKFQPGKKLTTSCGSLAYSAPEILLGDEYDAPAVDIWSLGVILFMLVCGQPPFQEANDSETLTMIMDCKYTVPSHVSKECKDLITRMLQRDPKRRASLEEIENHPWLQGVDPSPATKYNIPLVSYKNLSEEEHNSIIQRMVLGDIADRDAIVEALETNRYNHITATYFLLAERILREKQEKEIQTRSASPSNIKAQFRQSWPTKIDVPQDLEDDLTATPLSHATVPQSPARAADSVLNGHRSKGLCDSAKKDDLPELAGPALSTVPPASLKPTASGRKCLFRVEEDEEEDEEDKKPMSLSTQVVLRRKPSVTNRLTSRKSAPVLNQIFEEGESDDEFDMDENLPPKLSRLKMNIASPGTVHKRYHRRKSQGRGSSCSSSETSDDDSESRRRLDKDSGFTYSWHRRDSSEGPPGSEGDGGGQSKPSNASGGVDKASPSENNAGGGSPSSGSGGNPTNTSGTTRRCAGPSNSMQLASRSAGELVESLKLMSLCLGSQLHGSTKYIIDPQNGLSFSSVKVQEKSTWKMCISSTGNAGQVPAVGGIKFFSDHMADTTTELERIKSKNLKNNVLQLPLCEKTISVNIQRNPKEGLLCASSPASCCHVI

[6] = target: Serine/threonine-protein kinase SIK2 (Homo sapiens) (UniProt Q9H0K1); assay: Selectivity interaction (ProQinase) EUB0000171b SIK2
[7] = target: PAS domain-containing serine/threonine-protein kinase (Homo sapiens) (UniProt Q96RG2); assay: Selectivity interaction (KinaseProfiler screening (Millipore)) EUB0000601a PASK; details: at 3 µM
[8] = target: Acetylcholine receptor subunit alpha (Homo sapiens, UniProt P02708); assay: Selectivity interaction (Panel of kinases, GPCRs, ion channels and transporters (enzymatic assay)) EUB0000266bCl CHRNA1
[9] = target: Cyclin-dependent kinase 18 (Homo sapiens) (UniProt Q07002); assay: Selectivity interaction (ActivX KiNativ screen (kinase selectivity in THP-1 cell lysates)) EUB0000639a CDK18; format: subcellular; details: lysate, at 0.01 µM
[10] = target: Tyrosine-protein kinase Fyn (Homo sapiens) (UniProt P06241); assay: Selectivity interaction (Ambit KINOMEscan and KiNATiv profiling in Jurkat cells) EUB0000090b FYN; format: cell-based; details: at 1 µM
Tyrosine-protein kinase Fyn (Homo sapiens), sequence (P06241 2-537 limits assumed): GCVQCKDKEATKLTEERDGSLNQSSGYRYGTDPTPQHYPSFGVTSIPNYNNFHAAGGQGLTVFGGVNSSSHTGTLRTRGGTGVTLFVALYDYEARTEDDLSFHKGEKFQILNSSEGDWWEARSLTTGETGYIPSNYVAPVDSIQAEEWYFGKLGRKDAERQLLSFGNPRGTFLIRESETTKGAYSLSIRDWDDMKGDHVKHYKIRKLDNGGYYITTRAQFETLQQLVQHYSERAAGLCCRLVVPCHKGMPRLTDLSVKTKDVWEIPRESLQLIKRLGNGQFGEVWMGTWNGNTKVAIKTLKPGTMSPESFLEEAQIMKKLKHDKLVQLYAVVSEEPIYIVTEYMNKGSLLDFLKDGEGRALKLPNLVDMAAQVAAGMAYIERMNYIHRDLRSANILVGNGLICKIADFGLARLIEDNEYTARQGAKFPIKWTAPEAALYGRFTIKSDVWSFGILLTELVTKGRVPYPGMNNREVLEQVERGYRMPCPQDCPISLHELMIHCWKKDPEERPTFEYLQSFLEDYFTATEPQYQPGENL

Serine/threonine-protein kinase SIK2 (Homo sapiens), sequence (Q9H0K1 whole entry, looked up, the tested form may be a part): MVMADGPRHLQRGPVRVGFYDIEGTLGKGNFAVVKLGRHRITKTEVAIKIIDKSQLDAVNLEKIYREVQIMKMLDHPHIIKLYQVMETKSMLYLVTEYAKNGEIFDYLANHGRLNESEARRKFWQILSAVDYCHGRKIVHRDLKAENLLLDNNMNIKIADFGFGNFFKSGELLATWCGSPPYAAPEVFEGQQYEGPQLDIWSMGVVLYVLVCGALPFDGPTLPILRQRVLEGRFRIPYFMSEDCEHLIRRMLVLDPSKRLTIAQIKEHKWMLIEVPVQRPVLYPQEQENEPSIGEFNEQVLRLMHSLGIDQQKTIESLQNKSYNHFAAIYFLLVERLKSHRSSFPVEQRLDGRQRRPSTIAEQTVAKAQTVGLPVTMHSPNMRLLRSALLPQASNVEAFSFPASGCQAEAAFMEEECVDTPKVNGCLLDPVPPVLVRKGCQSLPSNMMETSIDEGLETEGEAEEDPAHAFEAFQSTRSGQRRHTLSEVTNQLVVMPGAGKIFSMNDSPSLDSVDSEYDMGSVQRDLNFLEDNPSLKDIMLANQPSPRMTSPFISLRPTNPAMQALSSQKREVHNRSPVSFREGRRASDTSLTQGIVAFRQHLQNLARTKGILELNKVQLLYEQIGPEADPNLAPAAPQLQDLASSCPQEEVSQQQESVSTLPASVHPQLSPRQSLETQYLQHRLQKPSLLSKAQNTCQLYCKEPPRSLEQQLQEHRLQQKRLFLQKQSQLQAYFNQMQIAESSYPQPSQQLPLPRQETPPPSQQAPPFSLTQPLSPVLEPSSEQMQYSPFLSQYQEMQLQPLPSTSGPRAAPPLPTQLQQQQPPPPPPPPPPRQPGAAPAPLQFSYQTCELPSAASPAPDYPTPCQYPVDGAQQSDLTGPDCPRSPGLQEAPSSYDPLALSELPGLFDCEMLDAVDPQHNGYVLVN
TGF-beta receptor type-2 (Homo sapiens), sequence (P37173 whole entry): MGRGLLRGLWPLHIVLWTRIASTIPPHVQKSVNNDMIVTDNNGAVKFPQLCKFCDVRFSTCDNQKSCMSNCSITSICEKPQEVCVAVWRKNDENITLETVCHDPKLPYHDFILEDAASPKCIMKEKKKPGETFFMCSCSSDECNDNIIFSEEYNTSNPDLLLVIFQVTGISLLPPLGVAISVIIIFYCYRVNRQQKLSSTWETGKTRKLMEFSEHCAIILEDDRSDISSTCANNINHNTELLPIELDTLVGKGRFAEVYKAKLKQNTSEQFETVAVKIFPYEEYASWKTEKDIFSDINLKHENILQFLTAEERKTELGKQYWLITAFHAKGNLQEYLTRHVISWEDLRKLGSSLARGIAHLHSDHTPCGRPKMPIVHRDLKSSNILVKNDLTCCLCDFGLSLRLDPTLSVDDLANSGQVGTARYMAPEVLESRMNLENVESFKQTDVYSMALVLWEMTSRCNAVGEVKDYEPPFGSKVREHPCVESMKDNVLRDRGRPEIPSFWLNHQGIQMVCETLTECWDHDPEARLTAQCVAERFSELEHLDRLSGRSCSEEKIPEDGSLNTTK
Macrophage-stimulating protein receptor, sequence (Q04912 25-304 limits assumed): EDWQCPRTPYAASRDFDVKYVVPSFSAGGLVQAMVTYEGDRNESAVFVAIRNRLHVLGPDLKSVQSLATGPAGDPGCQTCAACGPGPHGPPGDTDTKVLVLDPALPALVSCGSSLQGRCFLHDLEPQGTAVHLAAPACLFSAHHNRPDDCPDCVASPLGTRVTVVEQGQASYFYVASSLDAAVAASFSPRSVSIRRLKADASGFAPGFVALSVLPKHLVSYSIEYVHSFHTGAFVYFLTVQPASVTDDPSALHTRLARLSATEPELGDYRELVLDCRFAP
Macrophage-stimulating protein receptor, sequence (Q04912 310-1400 limits assumed): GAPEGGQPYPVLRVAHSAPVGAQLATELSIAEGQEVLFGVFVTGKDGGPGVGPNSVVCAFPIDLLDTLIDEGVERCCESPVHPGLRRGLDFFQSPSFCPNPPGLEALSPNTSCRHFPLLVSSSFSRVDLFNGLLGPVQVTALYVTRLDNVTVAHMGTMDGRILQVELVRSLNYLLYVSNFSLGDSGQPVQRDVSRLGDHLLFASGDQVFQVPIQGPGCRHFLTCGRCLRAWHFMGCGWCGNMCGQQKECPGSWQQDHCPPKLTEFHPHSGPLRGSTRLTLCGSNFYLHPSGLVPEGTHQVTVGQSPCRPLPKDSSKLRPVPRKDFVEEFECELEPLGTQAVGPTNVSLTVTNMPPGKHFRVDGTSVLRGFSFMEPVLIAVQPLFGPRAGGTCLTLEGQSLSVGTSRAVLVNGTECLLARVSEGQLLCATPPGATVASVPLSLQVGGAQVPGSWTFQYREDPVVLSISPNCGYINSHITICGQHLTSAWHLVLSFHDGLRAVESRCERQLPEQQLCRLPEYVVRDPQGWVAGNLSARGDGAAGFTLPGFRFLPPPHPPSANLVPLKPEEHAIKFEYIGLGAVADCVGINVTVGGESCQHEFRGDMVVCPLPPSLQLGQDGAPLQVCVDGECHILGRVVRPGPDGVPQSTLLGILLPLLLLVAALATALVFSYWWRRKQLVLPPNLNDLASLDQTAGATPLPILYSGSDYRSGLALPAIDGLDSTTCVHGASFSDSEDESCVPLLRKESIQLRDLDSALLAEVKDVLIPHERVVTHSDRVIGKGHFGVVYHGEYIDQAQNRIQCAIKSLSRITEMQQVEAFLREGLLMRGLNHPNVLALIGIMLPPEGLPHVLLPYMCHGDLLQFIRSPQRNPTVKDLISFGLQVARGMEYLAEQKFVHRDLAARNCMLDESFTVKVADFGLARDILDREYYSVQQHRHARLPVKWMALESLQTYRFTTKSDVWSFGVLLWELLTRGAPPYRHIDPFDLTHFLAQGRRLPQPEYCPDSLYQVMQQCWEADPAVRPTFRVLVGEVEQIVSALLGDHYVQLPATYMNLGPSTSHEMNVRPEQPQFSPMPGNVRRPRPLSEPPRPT
Acetylcholine receptor subunit alpha, sequence (P02708 whole entry): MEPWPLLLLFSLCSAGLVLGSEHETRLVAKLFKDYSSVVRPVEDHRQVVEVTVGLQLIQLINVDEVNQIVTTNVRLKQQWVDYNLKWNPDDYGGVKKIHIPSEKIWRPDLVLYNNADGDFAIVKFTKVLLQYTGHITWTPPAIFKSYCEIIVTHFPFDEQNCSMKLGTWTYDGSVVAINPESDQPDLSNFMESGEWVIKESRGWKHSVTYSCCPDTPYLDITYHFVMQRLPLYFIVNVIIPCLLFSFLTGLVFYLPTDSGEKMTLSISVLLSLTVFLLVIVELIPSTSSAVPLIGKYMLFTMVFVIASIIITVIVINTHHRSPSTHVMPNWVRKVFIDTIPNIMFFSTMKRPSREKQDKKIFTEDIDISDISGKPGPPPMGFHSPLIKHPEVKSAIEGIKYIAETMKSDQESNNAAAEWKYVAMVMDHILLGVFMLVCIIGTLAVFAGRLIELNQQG
Cyclin-dependent kinase 18 (Homo sapiens), sequence (Q07002 whole entry): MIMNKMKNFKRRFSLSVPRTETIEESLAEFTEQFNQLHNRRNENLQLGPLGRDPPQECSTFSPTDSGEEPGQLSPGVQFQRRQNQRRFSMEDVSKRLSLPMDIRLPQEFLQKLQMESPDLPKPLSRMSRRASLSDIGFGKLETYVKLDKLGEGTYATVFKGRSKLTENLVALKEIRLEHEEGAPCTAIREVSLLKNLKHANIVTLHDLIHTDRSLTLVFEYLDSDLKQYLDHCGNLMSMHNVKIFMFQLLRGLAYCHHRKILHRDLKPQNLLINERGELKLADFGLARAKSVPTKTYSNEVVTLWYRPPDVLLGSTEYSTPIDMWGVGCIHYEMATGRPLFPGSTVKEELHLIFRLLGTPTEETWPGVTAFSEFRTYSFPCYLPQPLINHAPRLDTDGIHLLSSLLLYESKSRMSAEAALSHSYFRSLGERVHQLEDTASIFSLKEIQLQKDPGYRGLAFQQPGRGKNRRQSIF
Dual specificity mitogen-activated protein kinase kinase 2 (Homo sapiens), sequence (P36507 whole entry): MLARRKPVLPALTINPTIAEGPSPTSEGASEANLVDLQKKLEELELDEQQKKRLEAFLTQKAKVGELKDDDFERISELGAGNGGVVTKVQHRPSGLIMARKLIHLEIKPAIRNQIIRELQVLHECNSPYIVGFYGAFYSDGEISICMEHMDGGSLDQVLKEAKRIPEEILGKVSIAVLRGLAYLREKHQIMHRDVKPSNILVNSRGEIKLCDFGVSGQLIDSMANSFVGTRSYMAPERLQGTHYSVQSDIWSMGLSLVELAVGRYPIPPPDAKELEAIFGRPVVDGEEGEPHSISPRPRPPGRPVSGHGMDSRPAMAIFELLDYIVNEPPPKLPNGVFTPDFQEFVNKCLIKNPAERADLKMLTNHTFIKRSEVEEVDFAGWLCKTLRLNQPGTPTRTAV

## Nc1cnc(N2CCc3cc(S(=O)(=O)Nc4c(F)cc(Cl)cc4F)cc(N4CCCC4=O)c32)nc1 [TP-020n]
[1]
  % of control: 92%

## Cn1cc(-n2cnc3c(NCc4nc5cc(Cl)c(Cl)cc5[nH]4)nc(N4CCOCC4)nc32)cn1
[2]
  % of control: 2.3%
[3]
  % of control: 3.34%

## O=C(NOC[C@H](O)CO)c1ccc(F)c(F)c1Nc1ccc(I)cc1F
[4]
  % of control: 78%
[5]
  % of control: 100%

## C=CC(=O)Nc1cccc(C(=O)Nc2ccc(Nc3cc(-c4[nH]c(SC)nc4C)ccn3)cc2)c1
[6]; at 1 µM
  % of control: 108%
[6]; at 5 µM
  % of control: 90%

## CCc1cc(Nc2nccc(-c3c(-c4ccc(OC)c(C(=O)Nc5c(F)cccc5F)c4)nc4ccccn34)n2)c(OC)cc1N1CCC(N2CCN(S(C)(=O)=O)CC2)CC1
[7]
  % of inhibition: 65%

## CCn1c(-c2nc3cc(C(=O)N4CCCC(N)C4)ccc3n2C)cc2ccccc21 (stereo unspecified)
[8]
  pXC50: < 4.3 M

## CC[C@@H]1[C@H](F)C(=O)N[C@@H]1COc1nccc2cc(C(N)=O)c(OC)cc12 [ZIMLOVISERTIB]
[9]
  % of inhibition: 16.3%

## CN(C)C/C=C/C(=O)Nc1ccc(C(=O)N2CCCC(Nc3ncc(Cl)c(-c4c[nH]c5ccccc45)n3)C2)cc1 (stereo unspecified)
[10]
  % of control: 61%
